Measurements as given in US8450305B2, “Macrocyclic compounds useful as inhibitors of kinases and HSP90” (Universite de Strasbourg, priority 2006, dated 2013).

Tests used:
Format in all cases: biochemical
FLT3 = molecular target: T1, FLT3 (Homo sapiens, UniProt P36888); experiment: Radiometric protein kinase assay, FLT3; details: 1 μM ATP; read-out: Inhibitory activity (IC50:μM) FLT3
T1 construct: host or cells: Sf9 insect cells (baculovirus)
T1 sequence (P36888 27-993): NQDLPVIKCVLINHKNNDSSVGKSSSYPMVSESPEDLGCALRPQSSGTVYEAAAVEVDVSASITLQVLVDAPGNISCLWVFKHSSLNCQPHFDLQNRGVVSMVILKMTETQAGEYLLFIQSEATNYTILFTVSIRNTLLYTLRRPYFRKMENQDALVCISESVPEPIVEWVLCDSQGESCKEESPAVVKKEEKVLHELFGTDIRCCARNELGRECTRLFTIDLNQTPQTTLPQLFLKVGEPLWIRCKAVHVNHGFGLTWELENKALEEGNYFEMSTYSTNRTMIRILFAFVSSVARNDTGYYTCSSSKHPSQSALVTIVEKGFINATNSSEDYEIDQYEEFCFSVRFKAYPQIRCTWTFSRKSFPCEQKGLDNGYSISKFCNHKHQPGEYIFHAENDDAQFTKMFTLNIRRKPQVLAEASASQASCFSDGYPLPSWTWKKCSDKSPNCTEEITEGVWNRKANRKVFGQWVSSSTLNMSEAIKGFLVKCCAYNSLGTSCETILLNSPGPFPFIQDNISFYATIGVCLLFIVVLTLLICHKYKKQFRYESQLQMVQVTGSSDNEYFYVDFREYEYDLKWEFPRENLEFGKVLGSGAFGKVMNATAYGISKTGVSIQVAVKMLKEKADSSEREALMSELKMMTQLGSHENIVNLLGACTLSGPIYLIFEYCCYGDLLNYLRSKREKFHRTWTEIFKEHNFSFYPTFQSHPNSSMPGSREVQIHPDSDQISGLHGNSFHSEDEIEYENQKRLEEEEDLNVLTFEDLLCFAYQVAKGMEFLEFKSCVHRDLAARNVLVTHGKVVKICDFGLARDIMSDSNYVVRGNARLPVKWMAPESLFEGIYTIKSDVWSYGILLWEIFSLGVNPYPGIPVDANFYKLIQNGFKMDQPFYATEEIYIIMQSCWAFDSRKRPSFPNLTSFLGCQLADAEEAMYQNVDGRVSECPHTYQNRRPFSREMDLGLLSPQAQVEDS
Excerpt: (§1) All protein kinases were expressed in Sf9 insect cells as human recombinant GST-fusion proteins or His-tagged proteins by means of the baculovirus expression system. Kinases were purified by affinity chromatography using either GSH-agarose (Sigma) or Ni-NTH-agarose (Qiagen). The purity of each kinase was checked by SDS-PAGE/silver staining and the identity of each kinase was verified by western blot analysis with kinase specific antibodies or by mass spectroscopy.
(§2) A radiometric protein kinase assay (^33PanQinase® Activity Assay) was used for measuring the kinase activity of the 24 protein kinases. All kinase assays were performed in 96-well FlashPlates™ from Perkin Elmer (Boston, Mass., USA) in a 50 μl reaction volume. The reaction cocktail was pipetted in 4 steps in the following order: • 20 μl of assay buffer • 5 μl of ATP solution (in H2O) • 5 μl of test compound (in 10% DMSO) • 10 μl of substrate/10 […] of enzyme solution (premixed)
(§3) The assay for all enzymes contained 60 mM HEPES-NaOH, pH 7.5, 3 mM MgCl2, 3 mM MnCl2, 3 μM Na-orthovanadate, 1.2 mM DTT, 50 μg/ml PEG20000, 1 μM [γ-^33P]-ATP (approx. 5×10^05 cpm per well).
(§4) For the 24 kinase assays, the following amounts of enzyme and substrate were used per well:
(§5) The reaction cocktails were incubated at 30° C. for 80 minutes. The reaction was stopped with 50 μl of 2% (v/v) H3PO4, plates were aspirated and washed two times with 200 μl of 0.9% (w/v) NaCl or 200 μl H2O. Incorporation of ^33Pi was determined with a microplate scintillation counter (Microbeta Trilux, Wallac).
(§6) The median value of the counts in column 1 (n=8) of each assay plate was defined as “low control”. This value reflects unspecific binding of radioactivity to the plate in the absence of a protein kinase but in the presence of the substrate. The median value of the counts in column 7 of each assay plate (n=8) was taken as the “high control”, i.e. full activity in the absence of any inhibitor. The difference between high and low control was taken as 100% activity.
(§7) As part of the data evaluation the low control value from a particular plate was subtracted from the high control value as well as from all 80 “compound values” of the corresponding plate. The residual activity (in %) for each well of a particular plate was calculated by using the following formula: Res. Activity (%)=100×[(cpm of compound−low control)/(high control−low control)]
(§8) The residual activities for each concentration and the compound IC50 values were calculated using Quattro Workflow V2.1.0.0 (Quattro Research GmbH, Munich, Germany; www.quattro-research.com). The model used was “Sigmoidal response (variable slope)” with parameters “top” fixed at 100% and “bottom” at 0%.

MET = molecular target: T2, MET (Homo sapiens, UniProt P08581); experiment: Radiometric protein kinase assay, MET; details: 1 μM ATP; read-out: Inhibitory activity (IC50:μM) MET
T2 construct: host or cells: Sf9 insect cells (baculovirus)
Excerpt: as §1
as §2, with “(premixed) […]” for “(premixed)”
The reaction cocktails were incubated at 30° C. for 80 minutes. […] Incorporation of ^33Pi was determined with a microplate scintillation counter (Microbeta Trilux, Wallac).
The median value of the counts in column 1 (n=8) of each assay plate was defined as “low control”. This value reflects unspecific binding of radioactivity to the plate in the absence of a protein kinase but in the presence of the substrate. […]
as §7
The residual activities for each concentration and the compound IC50 values were calculated using Quattro Workflow V2.1.0.0 (Quattro Research GmbH, Munich, Germany; www.quattro-research.com). […]

VEGF-R3 = molecular target: T3, VEGF-R3 (Homo sapiens, UniProt P35916); experiment: Radiometric protein kinase assay, VEGF-R3; details: 1 μM ATP; read-out: Inhibitory activity (IC50:μM) VEGF-R3
T3 construct: host or cells: Sf9 insect cells (baculovirus)
T3 sequence (P35916 25-1363): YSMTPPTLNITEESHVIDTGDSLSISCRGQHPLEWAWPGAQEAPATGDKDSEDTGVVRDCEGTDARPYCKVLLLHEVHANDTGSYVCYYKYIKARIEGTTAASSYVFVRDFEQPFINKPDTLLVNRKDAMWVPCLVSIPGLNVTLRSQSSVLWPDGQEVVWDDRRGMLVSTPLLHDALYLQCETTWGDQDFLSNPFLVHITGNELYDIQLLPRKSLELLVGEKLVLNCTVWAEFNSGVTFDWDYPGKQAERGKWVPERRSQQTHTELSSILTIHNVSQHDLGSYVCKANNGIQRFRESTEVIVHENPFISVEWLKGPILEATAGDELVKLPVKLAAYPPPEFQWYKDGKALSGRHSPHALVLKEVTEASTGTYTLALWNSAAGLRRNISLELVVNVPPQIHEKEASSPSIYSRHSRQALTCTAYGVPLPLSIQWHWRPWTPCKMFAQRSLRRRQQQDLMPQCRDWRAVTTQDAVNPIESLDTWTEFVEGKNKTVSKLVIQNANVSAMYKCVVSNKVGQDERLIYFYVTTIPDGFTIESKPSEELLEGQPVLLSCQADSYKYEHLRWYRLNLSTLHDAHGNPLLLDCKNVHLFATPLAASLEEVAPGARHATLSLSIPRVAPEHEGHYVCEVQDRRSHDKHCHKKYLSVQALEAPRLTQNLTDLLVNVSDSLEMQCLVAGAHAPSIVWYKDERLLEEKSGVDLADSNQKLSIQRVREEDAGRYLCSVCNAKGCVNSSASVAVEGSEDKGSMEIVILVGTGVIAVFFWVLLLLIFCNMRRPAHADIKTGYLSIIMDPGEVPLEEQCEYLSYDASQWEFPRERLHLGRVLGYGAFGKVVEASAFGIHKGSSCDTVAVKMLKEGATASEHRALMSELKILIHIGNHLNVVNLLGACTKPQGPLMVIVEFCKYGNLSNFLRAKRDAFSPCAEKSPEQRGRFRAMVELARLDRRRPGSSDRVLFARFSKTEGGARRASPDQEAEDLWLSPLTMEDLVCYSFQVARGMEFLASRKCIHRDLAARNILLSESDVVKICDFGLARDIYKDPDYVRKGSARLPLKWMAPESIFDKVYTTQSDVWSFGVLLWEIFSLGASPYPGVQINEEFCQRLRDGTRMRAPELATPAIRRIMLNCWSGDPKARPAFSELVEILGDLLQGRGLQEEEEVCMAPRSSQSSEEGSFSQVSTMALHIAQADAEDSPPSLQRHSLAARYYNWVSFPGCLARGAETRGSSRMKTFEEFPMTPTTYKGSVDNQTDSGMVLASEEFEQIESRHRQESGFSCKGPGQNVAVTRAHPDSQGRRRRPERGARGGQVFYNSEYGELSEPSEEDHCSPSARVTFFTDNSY
Excerpt: as §1, §2, §3, §4, §5, §6, §7, §8

VEGF-R2 = molecular target: T4, VEGF-R2 (Homo sapiens, UniProt P35968); experiment: Radiometric protein kinase assay, VEGF-R2; details: 1 μM ATP; read-out: Inhibitory activity (IC50:μM) VEGF-R2
T4 construct: host or cells: Sf9 insect cells (baculovirus)
T4 sequence (P35968 20-1356): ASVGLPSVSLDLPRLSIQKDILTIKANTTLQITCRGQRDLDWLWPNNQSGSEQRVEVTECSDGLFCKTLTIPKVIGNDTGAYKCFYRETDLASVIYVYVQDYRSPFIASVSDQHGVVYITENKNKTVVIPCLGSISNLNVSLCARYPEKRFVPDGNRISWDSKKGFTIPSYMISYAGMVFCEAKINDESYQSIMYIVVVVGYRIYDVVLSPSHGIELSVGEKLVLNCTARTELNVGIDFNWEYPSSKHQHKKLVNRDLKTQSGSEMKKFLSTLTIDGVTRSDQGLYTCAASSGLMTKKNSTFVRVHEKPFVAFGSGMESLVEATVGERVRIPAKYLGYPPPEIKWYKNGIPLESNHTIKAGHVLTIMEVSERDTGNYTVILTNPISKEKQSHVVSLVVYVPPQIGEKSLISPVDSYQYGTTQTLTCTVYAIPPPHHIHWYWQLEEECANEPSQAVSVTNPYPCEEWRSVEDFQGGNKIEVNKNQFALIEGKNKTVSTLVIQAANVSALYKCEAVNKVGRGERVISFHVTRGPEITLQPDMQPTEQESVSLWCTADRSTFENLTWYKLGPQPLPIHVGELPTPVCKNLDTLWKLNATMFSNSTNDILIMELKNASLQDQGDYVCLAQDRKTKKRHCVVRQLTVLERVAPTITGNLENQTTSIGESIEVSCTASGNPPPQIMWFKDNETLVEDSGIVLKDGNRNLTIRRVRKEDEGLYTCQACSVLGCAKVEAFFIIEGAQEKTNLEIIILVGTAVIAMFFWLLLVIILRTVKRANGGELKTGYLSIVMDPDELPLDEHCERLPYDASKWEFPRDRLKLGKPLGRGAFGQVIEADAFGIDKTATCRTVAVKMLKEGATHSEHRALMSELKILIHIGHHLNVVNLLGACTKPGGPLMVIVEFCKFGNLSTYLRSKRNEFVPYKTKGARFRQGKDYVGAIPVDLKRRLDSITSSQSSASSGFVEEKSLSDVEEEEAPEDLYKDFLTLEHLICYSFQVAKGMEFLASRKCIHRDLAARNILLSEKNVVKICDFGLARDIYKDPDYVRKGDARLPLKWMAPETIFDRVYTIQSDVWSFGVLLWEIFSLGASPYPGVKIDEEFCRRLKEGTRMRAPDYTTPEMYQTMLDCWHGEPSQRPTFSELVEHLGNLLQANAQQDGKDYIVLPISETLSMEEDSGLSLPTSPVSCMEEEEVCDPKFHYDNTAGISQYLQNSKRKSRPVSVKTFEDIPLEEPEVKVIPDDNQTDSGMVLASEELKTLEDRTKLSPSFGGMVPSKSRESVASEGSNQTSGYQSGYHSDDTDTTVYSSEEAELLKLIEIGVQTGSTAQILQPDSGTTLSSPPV
Excerpt: as §1, §2, §3, §4, §5, §6, §7, §8

EGF-R = molecular target: T5, EGF-R (Homo sapiens, UniProt P00533); experiment: Radiometric protein kinase assay, EGF-R; details: 1 μM ATP; read-out: Inhibitory activity (IC50:μM) EGF-R
T5 construct: host or cells: Sf9 insect cells (baculovirus)
Excerpt: as §1, §2, §3, §4, §5, §6, §7, §8

FAK = molecular target: T6, FAK (Homo sapiens, UniProt Q05397); experiment: Radiometric protein kinase assay, FAK; details: 1 μM ATP; read-out: Inhibitory activity (IC50:μM) FAK
T6 construct: host or cells: Sf9 insect cells (baculovirus)
T6 sequence (Q05397 whole entry): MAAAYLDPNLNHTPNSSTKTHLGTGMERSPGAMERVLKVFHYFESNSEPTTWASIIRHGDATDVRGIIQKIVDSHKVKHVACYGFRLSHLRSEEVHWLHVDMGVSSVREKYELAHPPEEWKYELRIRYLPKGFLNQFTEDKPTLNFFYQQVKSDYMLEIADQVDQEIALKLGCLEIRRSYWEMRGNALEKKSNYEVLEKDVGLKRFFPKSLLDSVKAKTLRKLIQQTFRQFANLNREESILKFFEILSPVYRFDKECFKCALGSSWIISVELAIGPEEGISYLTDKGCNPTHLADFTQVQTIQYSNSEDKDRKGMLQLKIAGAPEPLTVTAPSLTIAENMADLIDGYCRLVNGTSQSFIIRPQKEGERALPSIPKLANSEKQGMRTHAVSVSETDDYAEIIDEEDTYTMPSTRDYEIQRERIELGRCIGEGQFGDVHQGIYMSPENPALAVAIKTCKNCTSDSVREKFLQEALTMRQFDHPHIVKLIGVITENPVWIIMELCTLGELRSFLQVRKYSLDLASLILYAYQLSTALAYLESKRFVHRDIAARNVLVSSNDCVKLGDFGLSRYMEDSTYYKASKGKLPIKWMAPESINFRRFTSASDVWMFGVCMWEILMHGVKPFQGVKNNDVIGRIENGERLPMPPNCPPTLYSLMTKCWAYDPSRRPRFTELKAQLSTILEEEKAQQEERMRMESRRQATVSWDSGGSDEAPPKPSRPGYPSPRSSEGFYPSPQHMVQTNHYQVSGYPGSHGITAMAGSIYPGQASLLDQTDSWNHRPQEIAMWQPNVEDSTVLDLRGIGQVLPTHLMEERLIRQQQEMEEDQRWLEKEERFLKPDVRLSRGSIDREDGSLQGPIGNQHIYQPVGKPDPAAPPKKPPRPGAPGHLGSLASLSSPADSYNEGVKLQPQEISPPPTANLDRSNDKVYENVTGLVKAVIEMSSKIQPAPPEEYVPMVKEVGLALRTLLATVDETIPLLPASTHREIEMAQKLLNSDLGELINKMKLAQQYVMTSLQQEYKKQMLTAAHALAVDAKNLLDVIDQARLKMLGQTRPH
Excerpt: as §1, §2, §3, §4, §5, §6, §7, §8

SRC = molecular target: T7, SRC (Homo sapiens, UniProt P12931); experiment: Radiometric protein kinase assay, SRC; details: 1 μM ATP; read-out: Inhibitory activity (IC50:μM) SRC
T7 construct: host or cells: Sf9 insect cells (baculovirus)
T7 sequence (P12931 whole entry): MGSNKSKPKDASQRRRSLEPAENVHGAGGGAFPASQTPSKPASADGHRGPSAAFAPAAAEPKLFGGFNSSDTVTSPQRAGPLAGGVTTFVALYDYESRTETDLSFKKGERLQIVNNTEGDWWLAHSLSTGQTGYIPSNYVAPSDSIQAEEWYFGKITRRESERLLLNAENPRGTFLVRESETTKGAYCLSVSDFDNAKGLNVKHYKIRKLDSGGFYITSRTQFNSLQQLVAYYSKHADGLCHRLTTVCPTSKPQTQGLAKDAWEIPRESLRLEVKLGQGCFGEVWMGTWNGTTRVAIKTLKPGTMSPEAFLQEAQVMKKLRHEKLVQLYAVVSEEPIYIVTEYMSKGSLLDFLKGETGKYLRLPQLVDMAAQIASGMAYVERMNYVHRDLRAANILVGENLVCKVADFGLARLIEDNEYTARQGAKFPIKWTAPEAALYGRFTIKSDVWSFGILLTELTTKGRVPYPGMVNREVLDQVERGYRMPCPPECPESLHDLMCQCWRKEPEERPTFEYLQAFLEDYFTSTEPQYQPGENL
Excerpt: as §1, §2, §3, §4, §5, §6, §7, §8

Structure (SMILES) | IC50 (FLT3) | IC50 (MET) | IC50 (VEGF-R3) | IC50 (VEGF-R2) | IC50 (EGF-R) | IC50 (FAK) | IC50 (SRC)
COC1CC/C=C/C[C@H](c2ccccc2)OC(=O)c2c(O)cc(O)c(Cl)c2CC(=O)C1 (stereo partly shown) [A-2] | 23 µM | 32 µM | 40 µM | 19 µM | 10 µM | 14 µM | 
O=C1/C=C/CCC2OC2C[C@H](c2ccccc2)OC(=O)c2c(O)cc(O)c(Cl)c2C1 (stereo partly shown) [A-5] |  |  | 31 µM | 19 µM | 16 µM | 38 µM | 12 µM

Continued by falling IC50 (VEGF-R3), values first:

IC50 (FLT3) | IC50 (MET) | IC50 (VEGF-R3) | IC50 (VEGF-R2) | IC50 (EGF-R) | IC50 (FAK) | IC50 (SRC) | Structure (SMILES)
44 µM | 36 µM | 34 µM | 25 µM | 32 µM | 34 µM | 20 µM | O=C1/C=C/CCC2OC2C[C@@H](Cc2ccccc2)OC(=O)c2c(O)cc(O)cc2C1 (stereo partly shown) [A-6]
45 µM |  | 31 µM | 30 µM | 22 µM | 37 µM | 12 µM | CC(C)[C@@H]1CC2OC2CC/C=C/C(=O)Cc2c(Cl)c(O)cc(O)c2C(=O)O1 (stereo partly shown) [A-4]
23 µM | 29 µM | 19 µM | 20 µM | 14 µM | 9 µM | 14 µM | O=C1Cc2c(Cl)c(O)cc(O)c2C(=O)O[C@H](c2ccccc2)C/C=C/CCC(Cl)C1 (stereo partly shown) [A-3]
